In PubChem BioAssay (NCI):
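The compound was tested at five concentrations on cells cultured in 96-well plates, with a 48-hour exposure period. GI50: concentration for 50% inhibition of growth. TGI denotes the concentration required for complete inhibition of growth.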

How the values were obtained:
Assay in all cases: NCI anticancer screen, dose series, 48 h
[1] = tested on: RXF 393 renal
[2] = tested on: HS 578T breast
[3] = tested on: HOP-62 NSCLC
[4] = tested on: UACC-257 melanoma
[5] = tested on: NCI/ADR-RES ovarian
[6] = tested on: SF-295 CNS
[7] = tested on: SK-OV-3 ovarian
[8] = tested on: HCT-116 colon
[9] = tested on: SF-539 CNS
[10] = tested on: COLO 205 colon
[11] = tested on: BT-549 breast
[12] = tested on: SNB-19 CNS
[13] = tested on: HL-60(TB) leukemia
[14] = tested on: KM12 colon
[15] = tested on: OVCAR-4 ovarian
[16] = tested on: IGROV1 ovarian
[17] = tested on: A498 renal
[18] = tested on: SF-268 CNS
[19] = tested on: CCRF-CEM leukemia
[20] = tested on: MDA-MB-435
[21] = tested on: UO-31 renal
[22] = tested on: SK-MEL-28 melanoma
[23] = tested on: SR leukemia
[24] = tested on: NCI-H226 lung
[25] = tested on: DU-145 prostate
[26] = tested on: SK-MEL-2 melanoma
[27] = tested on: OVCAR-8 ovarian
[28] = tested on: HCC-2998 colon
[29] = tested on: HCT-15 colon
[30] = tested on: PC-3 prostate
[31] = tested on: MCF7 breast
[32] = tested on: SK-MEL-5 melanoma
[33] = tested on: RPMI-8226 leukemia
[34] = tested on: UACC-62 melanoma
[35] = tested on: NCI-H23 lung
[36] = tested on: LOX IMVI melanoma
[37] = tested on: EKVX NSCLC
[38] = tested on: ACHN renal
[39] = tested on: SW-620 colon
[40] = tested on: NCI-H522 lung
[41] = tested on: SNB-75 CNS
[42] = tested on: T-47D breast
[43] = tested on: U251 CNS
[44] = tested on: M14 melanoma
[45] = tested on: CAKI-1 renal
[46] = tested on: MOLT-4 leukemia
[47] = tested on: MALME-3M melanoma
[48] = tested on: NCI-H460 lung
[49] = tested on: MDA-MB-231 breast
[50] = tested on: 786-0 renal
[51] = tested on: A549 NSCLC
[52] = tested on: OVCAR-5 ovarian
[53] = tested on: HT29 colon
[54] = tested on: SN12C renal
[55] = tested on: TK-10 renal
[56] = tested on: HOP-92 NSCLC

Compound: CCCCCc1ccc(S(=O)(=O)Nc2cc(-c3csc(NC(=O)CN4CCN(C)CC4)n3)ccc2OC)cc1
- GI50 [1]: 717 nM
- TGI [1]: 1500 nM
- GI50 [2]: 919 nM
- TGI [2]: 2190 nM
- GI50 [3]: 915 nM
- TGI [3]: 1860 nM
- GI50 [4]: 850 nM
- TGI [4]: 1640 nM
- GI50 [5]: 2370 nM
- TGI [5]: 9890 nM
- GI50 [6]: 993 nM
- TGI [6]: 2010 nM
- GI50 [7]: 5140 nM
- TGI [7]: 13000 nM
- GI50 [8]: 876 nM
- TGI [8]: 1650 nM
- GI50 [9]: 859 nM
- TGI [9]: 1610 nM
- GI50 [10]: 821 nM
- TGI [10]: 1680 nM
- GI50 [11]: 2520 nM
- TGI [11]: 11200 nM
- GI50 [12]: 1260 nM
- TGI [12]: 3740 nM
- GI50 [13]: 1070 nM
- TGI [13]: 2340 nM
- GI50 [14]: 1210 nM
- TGI [14]: 2920 nM
- GI50 [15]: 1310 nM
- TGI [15]: 4100 nM
- GI50 [16]: 1190 nM
- TGI [16]: 3510 nM
- GI50 [17]: 5410 nM
- TGI [17]: 12200 nM
- GI50 [18]: 898 nM
- TGI [18]: 1920 nM
- GI50 [19]: 1240 nM
- TGI [19]: 3920 nM
- GI50 [20]: 878 nM
- TGI [20]: 1640 nM
- GI50 [21]: 736 nM
- TGI [21]: 1610 nM
- GI50 [22]: 873 nM
- TGI [22]: 1620 nM
- GI50 [23]: 993 nM
- TGI [23]: 2620 nM
- GI50 [24]: 6890 nM
- TGI [24]: 17600 nM
- GI50 [25]: 1620 nM
- TGI [25]: 4960 nM
- GI50 [26]: 867 nM
- TGI [26]: 1650 nM
- GI50 [27]: 1280 nM
- TGI [27]: 3650 nM
- GI50 [28]: 986 nM
- TGI [28]: 1970 nM
- GI50 [29]: 976 nM
- TGI [29]: 2090 nM
- GI50 [30]: 1800 nM
- TGI [30]: 7420 nM
- GI50 [31]: 937 nM
- TGI [31]: 1950 nM
- GI50 [32]: 892 nM
- TGI [32]: 1610 nM
- GI50 [33]: 925 nM
- TGI [33]: 2160 nM
- GI50 [34]: 969 nM
- TGI [34]: 1980 nM
- GI50 [35]: 1840 nM
- TGI [35]: 7120 nM
- GI50 [36]: 866 nM
- TGI [36]: 1630 nM
- GI50 [37]: 1920 nM
- TGI [37]: 9160 nM
- GI50 [38]: 957 nM
- TGI [38]: 1980 nM
- GI50 [39]: 867 nM
- TGI [39]: 1690 nM
- GI50 [40]: 889 nM
- TGI [40]: 1700 nM
- GI50 [41]: 1070 nM
- TGI [41]: 4470 nM
- GI50 [42]: 921 nM
- TGI [42]: 2060 nM
- GI50 [43]: 901 nM
- TGI [43]: 1910 nM
- GI50 [44]: 887 nM
- TGI [44]: 1700 nM
- GI50 [45]: 869 nM
- TGI [45]: 1970 nM
- GI50 [46]: 1490 nM
- TGI [46]: 4540 nM
- GI50 [47]: 788 nM
- TGI [47]: 1520 nM
- GI50 [48]: 924 nM
- TGI [48]: 1770 nM
- GI50 [49]: 992 nM
- TGI [49]: 2340 nM
- GI50 [50]: 884 nM
- TGI [50]: 1640 nM
- GI50 [51]: 1430 nM
- TGI [51]: 5480 nM
- GI50 [52]: 1540 nM
- TGI [52]: 5350 nM
- GI50 [53]: 871 nM
- TGI [53]: 1680 nM
- GI50 [54]: 1140 nM
- TGI [54]: 2770 nM
- GI50 [55]: 1410 nM
- TGI [55]: 5100 nM
- GI50 [56]: 857 nM
- TGI [56]: 1960 nM
